# Columns and labels:
# [1] = molecular target: T1, α3β4(6′F10′T) nicotinic acetylcholine receptor (Rattus norvegicus, UniProt P04757+P12392, A272T/S268F); assay: Two-electrode voltage clamp of Xenopus oocytes expressing mutant α3β4(6′F10′T) receptors; type: cell-based; conditions: for Effect of hyperpolarized holding potential on residual inhibition: −100 mV versus −50 mV; for Residual inhibition of mutant compared with wild-type receptor: after 5 minute wash
# T1 construct: expressed in transfected cells; host or cells: Xenopus laevis oocytes injected with subunit cRNAs; mutant made by QuikChange site-directed mutagenesis
# T1 sequence (P04757 26-499): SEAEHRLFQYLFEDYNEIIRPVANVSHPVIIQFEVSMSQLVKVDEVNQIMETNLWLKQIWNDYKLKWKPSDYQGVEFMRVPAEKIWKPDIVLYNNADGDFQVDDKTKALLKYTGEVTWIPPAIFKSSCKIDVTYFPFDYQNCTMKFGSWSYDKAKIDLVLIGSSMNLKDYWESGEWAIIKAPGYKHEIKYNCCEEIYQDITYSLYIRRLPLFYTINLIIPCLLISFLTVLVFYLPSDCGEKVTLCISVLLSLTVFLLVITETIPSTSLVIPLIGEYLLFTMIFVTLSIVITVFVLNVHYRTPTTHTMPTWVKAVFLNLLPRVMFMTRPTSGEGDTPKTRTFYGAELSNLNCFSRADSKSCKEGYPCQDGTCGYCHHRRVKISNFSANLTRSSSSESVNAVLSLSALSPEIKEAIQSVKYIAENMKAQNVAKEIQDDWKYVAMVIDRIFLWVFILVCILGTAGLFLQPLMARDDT
# T1 sequence (P12392 21-495 S268F/A272T): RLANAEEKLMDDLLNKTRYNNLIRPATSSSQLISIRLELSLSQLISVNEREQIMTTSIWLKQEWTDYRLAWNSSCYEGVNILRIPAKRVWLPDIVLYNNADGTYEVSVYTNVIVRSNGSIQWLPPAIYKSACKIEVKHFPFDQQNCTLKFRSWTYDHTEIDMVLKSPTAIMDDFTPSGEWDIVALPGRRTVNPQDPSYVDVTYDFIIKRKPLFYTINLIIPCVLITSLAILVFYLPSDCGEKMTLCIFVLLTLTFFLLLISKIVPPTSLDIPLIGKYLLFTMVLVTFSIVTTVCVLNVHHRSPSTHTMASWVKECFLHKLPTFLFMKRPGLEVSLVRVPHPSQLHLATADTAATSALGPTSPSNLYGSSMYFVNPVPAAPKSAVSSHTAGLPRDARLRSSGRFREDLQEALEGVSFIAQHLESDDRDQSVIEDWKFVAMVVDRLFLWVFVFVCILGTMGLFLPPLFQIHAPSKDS
# Description: cDNA clones. […] The sequences of the TM2 domains of the relevant subunits are shown below.
# Construction of site-directed mutants. Site-directed mutagenesis was conducted with […] kits ([…], LaJolla, Calif.). In brief, two complimentary oligonucleotides were synthesized which contain the desired mutation flanked by 10-15 bases of unmodified nucleotide sequence. Using a thermal cycler, Pfu DNA polymerase extended the sequence around the whole vector, generating a plasmid with staggered nicks. […] After 12-16 cycles, the product was treated with Dpn I, which digested the methylated parent DNA into numerous small pieces. The product was then transformed into E. coli cells, which repaired the nicks. Mutations were confirmed by DNA sequencing.
# (§1) Preparation of RNA. After linearization and purification of cloned cDNAs, RNA transcripts were prepared in vitro using the appropriate mMessage mMachine kit from AMBION Inc. (Austin, Tex.).
# (§2) Expression in Xenopus oocytes. Mature (>9 cm) female Xenopus laevis African toads (NASCO, Ft. Atkinson, Wis.) were used as a source of oocytes. Prior to surgery, frogs were anesthetized by placing the animal in a 1.5 g/L solution of MS222 (3-aminobenzoic acid ethyl ester). Eggs were removed from an incision made in the abdomen. […] Subsequently, stage 5 oocytes were isolated and injected with 50 nl (5-20 ng) each of a mixture of the appropriate subunit cRNAs following harvest. Recordings were made 1 to 7 days after injection depending on the cRNAs being tested.
# (§3) Electrophysiology. […] Data were acquired using Labview software (NATIONAL INSTRUMENTS) or pClamp8 (AXON INSTRUMENTS) and filtered at a rate of 6 Hz. […] A Mariotte flask filled with Ringer's solution was used to maintain a constant hydrostatic pressure for drug deliveries and washes. Drugs were diluted in perfusion solution and loaded into a 2 ml loop at the terminus of the perfusion line. A bypass of the drug-loading loop allowed bath solution to flow continuously while the drug loop was loaded, and then drug application was synchronized with data acquisition by using a 2-way electronic valve. The rate of bath solution exchange and all drug applications was 6 ml/min. Current electrodes were filled with a solution containing 250 mM CsCl, 250 mM CsF and 100 mM EGTA and had resistances of 0.5-2 MΩ. Voltage electrodes were filled with 3 M KCl and had resistances of 1-3 MΩ.
# (§4) Experimental protocols and data analysis. Current responses to drug application were studied under two-electrode voltage clamp at a holding potential of −50 mV unless otherwise noted. Holding currents immediately prior to agonist application were subtracted from measurements of the peak response to agonist.
# (§5) The ratio of C2/C1 is referred to as the recovery response (FIGS. 2B, 3B and 3D). Measurements of C2/C1 that were <0.75 were taken to indicate that the experimental drug application produced some form of residual inhibition. An oocyte was not used for further experimental drug applications when the measurements of C2/C 1 became less than 0.75.
# (§6) Means and standard errors (SEM) were calculated from the normalized responses of at least four oocytes for each experimental concentration. For concentration-response relations (FIGS. 2 & 3), data were plotted using Kaleidagraph 3.0.2 (ABELBECK SOFTWARE; Reading, Pa.), and curves were generated from the Hill equation. [formula]
# (§7) In Formula I, Imax denotes the maximal response for a particular agonist/subunit combination, and n represents the Hill coefficient. Imax, n, and the EC50 were all unconstrained for the fitting procedures.
# (§8) The values for the C2/C1 ratios were plotted as functions of the experimental agonist concentrations applied between the C2 and C1 control responses. The data were then fit to the Hill equation with n constrained to equal −1 for the calculation of IC50 values.
# [2] = molecular target: T2, α3β4 nicotinic acetylcholine receptor (Rattus norvegicus, UniProt P04757+P12392); assay: Two-electrode voltage clamp of Xenopus oocytes expressing wild-type α3β4 receptors; type: cell-based; conditions: for Protection from residual inhibition produced by 100 μM DMXB: pre-treatment and co-application, 100 μM ACh control after 5 minute wash
# T2 construct: expressed in transfected cells; host or cells: Xenopus laevis oocytes injected with subunit cRNAs
# T2 sequence (P04757 26-499): as the sequence (P04757 26-499) above
# T2 sequence (P12392 21-495): as the sequence (P12392 21-495 S268F/A272T) above, with F248S, T252A counted along it
# Description: as §1, §2, §3, §4, §5, §6, §7
# as §8, with “values. Determination of significant differences between experimental and control groups (FIGS. 4A-4B and 5A-5D) was made by t-test (unpaired two-tailed).” for “values.”
# [3] = Hill fit of peak currents, holding potential −50 mV
compound,measurement,setting,value
"CN1CCCC1c1cccnc1 (single isomer, unassigned; (-)) [Nicotine, (−)-Nicotine]",n (Hill coefficient),[1]; Hill fit of peak currents,0.8 ± 0.3
same,Persistence of residual inhibition,"[1]; repeated applications, data not shown",up to an hour
same,Effect of hyperpolarized holding potential on residual inhibition,[1],enhanced
same,n (Hill coefficient),[2]; Hill fit of peak currents,1.2 ± 0.2
"COc1ccc(/C=C2\CCCN=C2c2cccnc2)c(OC)c1 [DMXB, 3-[2,4-dimethoxybenzylidene]-anabaseine]",IC50,[1],23 ± 17 µM
same,Response to 100 μM ACh when co-applied with DMXB,[1]; 30 μM DMXB co-applied with 100 μM ACh,13±2%
same,Effect of ACh co-application on DMXB-induced residual inhibition,[1]; 30 μM DMXB co-applied with ACh,large increase in the residual inhibition
same,Residual inhibition of mutant compared with wild-type receptor,[1],more inhibition after it was applied at 100 or 300 μM
same,Effect of hyperpolarized holding potential on residual inhibition,[1],enhanced
same,IC50,[2],121 ± 48 µM
same,"Activation on co-application with 100 μM ACh, relative to ACh alone",[2]; 100 μM DMXB co-applied with 100 μM ACh,4±0.2%
same,Effect of ACh co-application on DMXB-induced inhibition,[2]; DMXB co-applied with 100 μM ACh,not enhanced
same,Effect of hyperpolarized holding potential on residual inhibition,[2]; −100 mV versus −50 mV,enhanced
"CC[N+](CC)(CC)CC(=O)Nc1c(C)cccc1C [QX-314, 2-(triethylamino)-N-(2,6-dimethylphenyl)-acetamide]",Protection from residual inhibition produced by 100 μM DMXB,[2],neither of these agents provided any protection
"CNCC/C=C/c1cccnc1 [TC-2403, (E)-N-methyl-4-(3-pyridinyl)-3-butene-1-amine]",n (Hill coefficient),[1]; Hill fit of peak currents,2.1 ± 0.2
same,Max response (relative to ACh Maximum),[1]; [3],0.38 ± 0.01
same,EC50,[1]; activation of peak currents,111 ± 5 µM
same,"Control ACh response after application, relative to pre-application control values","[1]; after 1 mM TC-2403, 5 minute wash",70±6%
same,Residual inhibition of mutant compared with wild-type receptor,[1],no significant increase in residual inhibition at concentrations less than 1 mM
same,Protection from residual inhibition produced by 100 μM DMXB,"[1]; pre-treatment and co-application, p<0.01 for TC-2403",significant protection
same,Protection from residual inhibition produced by 300 μM nicotine,"[1]; pre-treatment and co-application, p<0.05 for TC-2403",significant protection
same,n (Hill coefficient),[2]; Hill fit of peak currents,2.1 ± 0.2
same,Max response (relative to ACh Maximum),[2]; [3],0.09 ± 0.01
same,EC50,[2]; activation of peak currents,347 ± 12 µM
same,Protection from residual inhibition produced by 100 μM DMXB,[2],significant (p<0.05) reduction in the residual inhibition
CCCCNc1ccc(C(=O)OCCN(C)C)cc1 [tetracaine],Protection from residual inhibition produced by 100 μM DMXB,[2],neither of these agents provided any protection

# Reference: patent publication US6852741B2, “Compositions and methods for treatment of neurological disorders” (University of Florida, priority 2001, dated 2005)
